Data reported in ChEMBL document CHEMBL6177998, “Rational Design of Dual Degraders by Incorporating Molecular Glue Structural Features into PROTAC Degraders” (J Med Chem, 2025).
Active and inactive are the calls of the source. The rule behind the calls is not given here.

Legend:
[1] = Clearance in male ICR mouse at 2 mg/kg, iv by LC-MS/MS analysis; assay type: ADME, organism-based; details: in vivo
[2] = target: T1, Protein cereblon/Androgen receptor (Homo sapiens, UniProt P10275+Q96SW2); experiment: Binding affinity to CRBN/AR in human 22Rv1 cells assessed as ternary complex formation incubated for 6 hrs by co-immunoprecipitation based Western blot analysis; assay type: cell-based
Target sequence in this assay (P10275 whole entry, looked up): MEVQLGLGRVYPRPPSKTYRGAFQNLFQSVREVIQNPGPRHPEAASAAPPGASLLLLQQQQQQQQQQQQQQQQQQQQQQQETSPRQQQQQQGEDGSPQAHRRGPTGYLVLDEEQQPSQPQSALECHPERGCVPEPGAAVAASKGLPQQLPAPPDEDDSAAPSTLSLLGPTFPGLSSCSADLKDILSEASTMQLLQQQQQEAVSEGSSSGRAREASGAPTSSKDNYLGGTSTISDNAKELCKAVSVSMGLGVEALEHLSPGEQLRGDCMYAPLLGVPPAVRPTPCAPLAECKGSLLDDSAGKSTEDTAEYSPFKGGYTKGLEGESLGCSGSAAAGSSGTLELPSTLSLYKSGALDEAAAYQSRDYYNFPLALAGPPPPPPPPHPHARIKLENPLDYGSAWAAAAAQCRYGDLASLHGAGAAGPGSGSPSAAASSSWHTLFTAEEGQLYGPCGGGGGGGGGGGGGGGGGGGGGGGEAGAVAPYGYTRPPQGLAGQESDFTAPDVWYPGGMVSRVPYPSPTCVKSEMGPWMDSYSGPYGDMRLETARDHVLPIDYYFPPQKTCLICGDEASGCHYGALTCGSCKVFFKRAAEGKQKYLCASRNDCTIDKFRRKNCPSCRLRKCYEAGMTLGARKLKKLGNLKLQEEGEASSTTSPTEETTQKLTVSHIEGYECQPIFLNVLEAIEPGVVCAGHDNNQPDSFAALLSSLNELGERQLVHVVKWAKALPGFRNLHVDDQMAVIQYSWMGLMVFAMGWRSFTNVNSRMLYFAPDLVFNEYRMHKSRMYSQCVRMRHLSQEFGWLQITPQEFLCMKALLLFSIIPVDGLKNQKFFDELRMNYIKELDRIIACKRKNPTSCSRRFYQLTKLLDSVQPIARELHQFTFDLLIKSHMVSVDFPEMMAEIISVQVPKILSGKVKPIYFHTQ
Target sequence in this assay (Q96SW2 whole entry, looked up): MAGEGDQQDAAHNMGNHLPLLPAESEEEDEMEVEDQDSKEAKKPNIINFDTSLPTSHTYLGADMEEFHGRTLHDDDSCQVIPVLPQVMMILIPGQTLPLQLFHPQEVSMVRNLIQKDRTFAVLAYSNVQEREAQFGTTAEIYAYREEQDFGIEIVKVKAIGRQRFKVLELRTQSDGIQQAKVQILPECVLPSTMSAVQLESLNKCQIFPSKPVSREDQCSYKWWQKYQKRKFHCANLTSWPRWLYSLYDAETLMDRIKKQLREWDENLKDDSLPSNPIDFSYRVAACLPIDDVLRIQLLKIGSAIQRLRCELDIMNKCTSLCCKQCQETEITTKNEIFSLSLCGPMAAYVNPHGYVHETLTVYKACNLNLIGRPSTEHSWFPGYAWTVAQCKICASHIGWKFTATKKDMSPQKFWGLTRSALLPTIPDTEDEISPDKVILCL

[3] = target: T1, Protein cereblon/Androgen receptor; experiment: PROTAC activity at CRBN/AR in human Enzalutamide-resistant LNCaP cells assessed as induction of androgen receptor degradation at 1 to 300 nM by Western blot analysis; assay type: cell-based; details: dose 1-300 nM
Target sequence in this assay (P10275 whole entry, looked up): as the sequence (P10275 whole entry, looked up) above
Target sequence in this assay (Q96SW2 whole entry, looked up): as the sequence (Q96SW2 whole entry, looked up) above

[4] = tested on: Protein cereblon/Androgen receptor (Homo sapiens), P10275+Q96SW2 [UNDEFINED MUTATION]; experiment: PROTAC activity at CRBN/Androgen receptor splice variant 7 in human 22Rv1 cells assessed as induction of AR-V7 degradation at 20 nM incubated for 24 hrs by Western blot analysis (reference value: 0%); assay type: cell-based
[5] = target: Protein cereblon/Zinc finger protein Helios (Homo sapiens) (UniProt Q96SW2+Q9UKS7); experiment: Molecular glue activity at CRBN/IKZF2 in human 22Rv1 cells assessed as induction of IKZF2 degradation at 3 uM incubated for 6 hrs by Western blot analysis; assay type: cell-based
CWR22R [6] = experiment: Induction of apoptosis in human 22Rv1 cells assessed as increase in cleaved PARP expression incubated for 24 hrs by Western blot analysis; assay type: functional, cell-based; details: dose 1-30 nM
CWR22R [7] = experiment: Upregulation of ribosome-related pathway gene expression in human 22Rv1 cells at 3 nM incubated for 24 hrs by GSEA analysis; assay type: functional, cell-based
CWR22R [8] = experiment: Effect on androgen receptor mRNA expression in human 22Rv1 cells at 1 to 10 nM incubated for 24 hrs by RT-PCR analysis; assay type: functional, cell-based; details: dose 1-10 nM
[9] = tested on: Protein cereblon/Androgen receptor (Homo sapiens), P10275+Q96SW2 [UNDEFINED MUTATION]; experiment: Induction of AR-V7 degradation in human 22Rv1 cells transfected with CRBN siRNA at 30 nM incubated for 24 hrs by Western blot analysis; assay type: cell-based
CWR22R [10] = experiment: Effect on GSPT1 mRNA expression in human 22Rv1 cells at 1 to 10 nM incubated for 24 hrs by RT-PCR analysis; assay type: functional, cell-based; details: dose 1-10 nM
[11] = target: T2, Protein cereblon/Eukaryotic peptide chain release factor GTP-binding subunit ERF3A (Homo sapiens, UniProt Q96SW2+P15170); experiment: Molecular glue activity at CRBN/GSPT1 in human 22Rv1 cells assessed as induction of GSPT1 degradation at 20 nM incubated for 1 hrs by Western blot analysis (reference value: 0 %); assay type: cell-based
[12] = tested on: Protein cereblon/Androgen receptor (Homo sapiens), P10275+Q96SW2 [UNDEFINED MUTATION]; experiment: PROTAC activity at CRBN/Androgen receptor splice variant 7 in human 22Rv1 cells assessed as induction of AR-V7 degradation at 50 nM preincubated with MLN4924 followed by compound addition and measured after 12 hrs by Western blot analysis; assay type: cell-based
CWR22R [13] = experiment: Cell cycle arrest in human 22Rv1 cells assessed as accumulation of cells at G1 phase at 30 nM incubated for 24 hrs by flow cytometric analysis (reference value: 49.7 %); assay type: functional
22Rv1 = experiment: Induction of AR degradation in human 22Rv1 cells transfected with CRBN siRNA at 30 nM incubated for 24 hrs by Western blot analysis; assay type: cell-based
[14] = target: T2, Protein cereblon/Eukaryotic peptide chain release factor GTP-binding subunit ERF3A; experiment: Molecular glue activity at CRBN/GSPT1 in human 22Rv1 cells assessed as induction of GSPT1 degradation at 20 nM incubated for 18 hrs by Western blot analysis (reference value: 0 %); assay type: cell-based
[15] = target: T1, Protein cereblon/Androgen receptor; experiment: PROTAC activity at CRBN/AR in human VCaP cells assessed as induction of AR degradation at 20 nM by Western blot analysis; assay type: cell-based; details: time 1-36 hrs
Target sequence in this assay (P10275 whole entry, looked up): as the sequence (P10275 whole entry, looked up) above
Target sequence in this assay (Q96SW2 whole entry, looked up): as the sequence (Q96SW2 whole entry, looked up) above

CWR22R [16] = experiment: Antiproliferative activity against AR-dependent human 22Rv1 cells assessed as cell growth inhibition incubated for 72 hrs by Celltiter-lumi luminescent cell viability assay; assay type: functional, cell-based; details: 22Rv1, 72 h
[17] = tested on: Protein cereblon/Androgen receptor (Homo sapiens), P10275+Q96SW2 [UNDEFINED MUTATION]; experiment: PROTAC activity at CRBN/Androgen receptor splice variant 7 in human 22Rv1 cells assessed as induction of AR-V7 degradation at 0.01 uM incubated for 24 hrs by Western blot analysis relative to control; assay type: cell-based
[18] = target: T1, Protein cereblon/Androgen receptor; experiment: In vivo PROTAC activity at CRBN/AR in male NOD SCID mouse model xenografted with human LNCaP cells assessed as reduction in androgen receptor level in tumor at 20 mg/kg, po administered daily for 26 days by Western blot analysis; assay type: functional, organism-based; details: time 26.0 day
Target sequence in this assay (P10275 whole entry, looked up): as the sequence (P10275 whole entry, looked up) above
Target sequence in this assay (Q96SW2 whole entry, looked up): as the sequence (Q96SW2 whole entry, looked up) above

[19] = target: T1, Protein cereblon/Androgen receptor; experiment: PROTAC activity at CRBN/AR in human 22Rv1 cells assessed as induction of AR degradation at 50 nM preincubated with MLN4924 followed by compound addition and measured after 12 hrs by Western blot analysis; assay type: cell-based
Target sequence in this assay (P10275 whole entry, looked up): as the sequence (P10275 whole entry, looked up) above
Target sequence in this assay (Q96SW2 whole entry, looked up): as the sequence (Q96SW2 whole entry, looked up) above

[20] = target: T1, Protein cereblon/Androgen receptor; experiment: PROTAC activity at CRBN/AR in human VCaP cells assessed as induction of AR degradation by measuring maximal efficacy incubated for 24 hrs by Western blot analysis relative to control; assay type: cell-based
Target sequence in this assay (P10275 whole entry, looked up): as the sequence (P10275 whole entry, looked up) above
Target sequence in this assay (Q96SW2 whole entry, looked up): as the sequence (Q96SW2 whole entry, looked up) above

[21] = target: T2, Protein cereblon/Eukaryotic peptide chain release factor GTP-binding subunit ERF3A; experiment: Molecular glue activity at CRBN/GSPT1 in human VCaP cells assessed as induction of GSPT1 degradation at 50 nM preincubated with MG132 followed by compound addition and measured after 12 hrs by Western blot analysis; assay type: cell-based
[22] = target: T2, Protein cereblon/Eukaryotic peptide chain release factor GTP-binding subunit ERF3A; experiment: Binding affinity to CRBN/GSPT1 in human 22Rv1 cells assessed as ternary complex formation incubated for 6 hrs by co-immunoprecipitation based Western blot analysis; assay type: cell-based
[23] = Selectivity ratio of IC50 for antiproliferative activity against AR-independent human DU-145 cells assessed as cell growth inhibition to IC50 for antiproliferative activity against AR-dependent human LNCaP cells assessed as cell growth inhibition; assay type: functional
[24] = tested on: Protein cereblon/Androgen receptor (Homo sapiens), P10275+Q96SW2 [UNDEFINED MUTATION]; experiment: PROTAC activity at CRBN/Androgen receptor splice variant 7 in human 22Rv1 cells assessed as induction of AR-V7 degradation at 20 nM incubated for 2 hrs by Western blot analysis (reference value: 0%); assay type: cell-based
[25] = tested on: Protein cereblon/Androgen receptor (Homo sapiens), P10275+Q96SW2 [UNDEFINED MUTATION]; experiment: PROTAC activity at CRBN/Androgen receptor splice variant 7 in human Enzalutamide-resistant VCaP cells assessed as induction of AR-V7 degradation at 1 to 300 nM by Western blot analysis; assay type: cell-based; details: dose 1-300 nM
[26] = target: T1, Protein cereblon/Androgen receptor; experiment: PROTAC activity at CRBN/AR in human 22Rv1 cells assessed as induction of AR degradation at 20 uM preincubated with EPI-002 for 4 hrs followed by compound addition and measured after 36 hrs by Western blot analysis; assay type: cell-based
[27] = target: T1, Protein cereblon/Androgen receptor; experiment: PROTAC activity at CRBN/AR in human LNCaP cells assessed as decrease in FKBP51 protein level incubated for 24 hrs by Western blot analysis; assay type: cell-based; details: dose 1-100 nM
[28] = target: T1, Protein cereblon/Androgen receptor; experiment: PROTAC activity at CRBN/AR in human LNCaP cells assessed as decrease in TMPRSS2 mRNA level at 10 to 100 nM incubated for 24 hrs by qRT-PCR analysis; assay type: cell-based; details: dose 10-100 nM
[29] = Cmax in male ICR mouse at 10 mg/kg, po by LC-MS/MS analysis; assay type: ADME, organism-based; details: in vivo
[30] = target: T2, Protein cereblon/Eukaryotic peptide chain release factor GTP-binding subunit ERF3A; experiment: Molecular glue activity at CRBN/GSPT1 in human Enzalutamide-resistant LNCaP cells assessed as induction of GSPT1 degradation at 1 to 300 nM by Western blot analysis; assay type: cell-based; details: dose 1-300 nM
[31] = target: T1, Protein cereblon/Androgen receptor; experiment: PROTAC activity at CRBN/AR in human 22Rv1 cells assessed as induction of AR degradation incubated for 24 hrs by Western blot analysis; assay type: cell-based

Sequence of Protein cereblon/Androgen receptor (Homo sapiens), P10275+Q96SW2 [UNDEFINED MUTATION] (P10275 whole entry, looked up, stated change not applied, canonical isoform): as the sequence (P10275 whole entry, looked up) above
Sequence of Protein cereblon/Androgen receptor (Homo sapiens), P10275+Q96SW2 [UNDEFINED MUTATION] (Q96SW2 whole entry, looked up, stated change not applied, canonical isoform): as the sequence (Q96SW2 whole entry, looked up) above
T2 sequence (P15170 whole entry, looked up, canonical isoform): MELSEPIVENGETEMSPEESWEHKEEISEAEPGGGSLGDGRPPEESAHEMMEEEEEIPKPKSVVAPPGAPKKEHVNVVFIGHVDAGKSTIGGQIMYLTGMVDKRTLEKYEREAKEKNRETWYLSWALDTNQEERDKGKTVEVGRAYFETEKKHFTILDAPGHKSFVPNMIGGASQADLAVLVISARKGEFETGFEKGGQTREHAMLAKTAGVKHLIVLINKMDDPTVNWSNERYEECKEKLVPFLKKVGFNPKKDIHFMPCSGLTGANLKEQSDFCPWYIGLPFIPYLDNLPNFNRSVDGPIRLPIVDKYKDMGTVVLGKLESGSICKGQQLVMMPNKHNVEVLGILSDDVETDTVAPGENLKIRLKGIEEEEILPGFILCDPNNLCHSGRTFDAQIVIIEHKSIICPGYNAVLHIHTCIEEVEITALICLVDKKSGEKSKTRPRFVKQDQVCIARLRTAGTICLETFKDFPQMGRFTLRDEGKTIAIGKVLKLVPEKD
T2 sequence (Q96SW2 whole entry, looked up, canonical isoform): as the sequence (Q96SW2 whole entry, looked up) above
Sequence of Protein cereblon/Zinc finger protein Helios (Homo sapiens) (Q96SW2 whole entry, looked up): as above
Sequence of Protein cereblon/Zinc finger protein Helios (Homo sapiens) (Q9UKS7 whole entry, looked up): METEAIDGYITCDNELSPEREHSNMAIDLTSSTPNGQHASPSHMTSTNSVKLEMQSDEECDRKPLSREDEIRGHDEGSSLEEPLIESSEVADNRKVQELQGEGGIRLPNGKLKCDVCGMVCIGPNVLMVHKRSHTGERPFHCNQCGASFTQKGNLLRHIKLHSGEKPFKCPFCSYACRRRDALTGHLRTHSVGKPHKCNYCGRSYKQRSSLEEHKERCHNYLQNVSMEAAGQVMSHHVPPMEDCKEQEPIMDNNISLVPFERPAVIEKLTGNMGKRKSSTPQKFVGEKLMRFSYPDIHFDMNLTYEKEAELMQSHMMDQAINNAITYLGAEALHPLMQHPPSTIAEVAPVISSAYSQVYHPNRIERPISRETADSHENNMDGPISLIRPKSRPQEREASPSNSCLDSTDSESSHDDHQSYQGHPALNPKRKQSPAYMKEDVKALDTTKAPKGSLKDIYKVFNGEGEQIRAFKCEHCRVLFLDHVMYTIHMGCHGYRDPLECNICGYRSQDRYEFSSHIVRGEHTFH

With `COc1ccc(C(C)(C)c2cc(Cl)c(OCC3CCN(C(=O)CCCCCNc4ccc5c(c4)C(=O)N(C4CCC(=O)NC4=O)C5=O)CC3)c(C#N)c2)cc1` (stereo not drawn) the clearance [1] was 18 mL/min/kg, the Activity [2] was “Active” and the Activity [3] was “Active”. The Activity [4] was 95.5%, the Activity [5] was “Moderate_effect” and the Activity (CWR22R [6]) was “Dose-dependent-effect”. For the same compound, the Activity (CWR22R [7]) was “Active”, the Activity (CWR22R [8]) was “Minimal_effect” and the Activity [9] was “inactive”. The Activity (CWR22R [10]) was “Minimal_effect”, the Activity [11] was 21.8% and the Activity [12] was “inactive”. For the same compound, the Activity (CWR22R [13]) was 74.6%, the Activity (22Rv1) was “inactive” and the Activity [14] was 98.4%. The Activity [15] was “Time-dependent-effect”, the IC50 (CWR22R [16]) was 1.1 nM and the Activity [17] was 65.7%. For the same compound, the Activity [18] was “Active”, the Activity [19] was “inactive” and the Emax [20] was 82.5%. The Activity [21] was “inactive”, the Activity [22] was “Active” and the “Ratio IC50” value [23] was 315. The Activity [24] was 21.8%, the Activity [25] was “Active” and the Activity [26] was “inactive”. For the same compound, the Activity [27] was “Dose-dependent-effect”, the Activity [28] was “Active” and the Cmax [29] was 206 ng/mL. For the same compound, the Activity [30] was “Active”, the Activity [31] was “Dose-dependent-effect” and the DC50 [31] was 3.7 nM.
